Values joined by “and” are separate entries in the source; they are usually repeats but may differ in a detail not shown here. Identical values can stand only once. Toxic doses and inconclusive results are not listed. Rule for the calls: active = survival T/C of 150% or more; inactive = T/C below 125% in these data.
System: CD2F1 mice, L1210 leukemia ip, survival T/C
Assay: NCI In Vivo Anticancer Drug Screen. Data for tumor model L1210 Leukemia (intraperitoneal) in CD2F1 (CDF1) mice
Settings: higher = longer survival
Procedure, shortened: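 Antitumor effect is scored in animals hosting a serially transplanted tumor. Values compare compound-dosed animals against vehicle-only controls as a simple quotient.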

[1] = endpoint: mean survival time, dose: 100.0 mg/kg/injection, schedule: Q04DX002 (ip), vehicle: saline with Tween-80
[2] = endpoint: mean survival time, dose: 200.0 mg/kg/injection, schedule: Q04DX002 (ip), vehicle: saline with Tween-80
[3] = endpoint: mean survival time, dose: 400.0 mg/kg/injection, schedule: Q04DX002 (ip), vehicle: saline with Tween-80
[4] = endpoint: mean survival time, dose: 50.0 mg/kg/injection, schedule: Q01DX009 (ip), vehicle: saline with Tween-80
[5] = endpoint: mean survival time, dose: 12.5 mg/kg/injection, schedule: Q01DX005 (ip), vehicle: distilled water + Tween-80
[6] = endpoint: mean survival time, dose: 25.0 mg/kg/injection, schedule: Q01DX005 (ip), vehicle: distilled water + Tween-80
[7] = endpoint: mean survival time, dose: 50.0 mg/kg/injection, schedule: Q01DX005 (ip), vehicle: distilled water + Tween-80
[8] = endpoint: mean survival time, dose: 100.0 mg/kg/injection, schedule: Q01DX005 (ip), vehicle: distilled water + Tween-80
[9] = endpoint: mean survival time, dose: 100.0 mg/kg/injection, schedule: Q01DX009 (ip), vehicle: saline with Tween-80
[10] = endpoint: mean survival time, dose: 50.0 mg/kg/injection, schedule: Q04DX002 (ip), vehicle: saline with Tween-80

Measured: T/C

NC(N)=NOCC[C@@H](N)C(=O)O
inactive: endpoint: median survival time, dose: 25.0 mg/kg/injection, schedule: Q01DX009 (ip), vehicle: saline 102 % of control | endpoint: median survival time, dose: 50.0 mg/kg/injection, schedule: Q01DX009 (ip), vehicle: saline 101 % of control | endpoint: median survival time, dose: 100.0 mg/kg/injection, schedule: Q01DX009 (ip), vehicle: saline 98 % of control | endpoint: median survival time, dose: 200.0 mg/kg/injection, schedule: Q01DX009 (ip), vehicle: saline 103 % of control | endpoint: median survival time, dose: 400.0 mg/kg/injection, schedule: Q01DX009 (ip), vehicle: saline 102 % of control | endpoint: median survival time, dose: 500.0 mg/kg/injection, schedule: Q01DX001 (ip), vehicle: saline 97 % of control | endpoint: median survival time, dose: 750.0 mg/kg/injection, schedule: Q01DX001 (ip), vehicle: saline 96 % of control | endpoint: median survival time, dose: 1000.0 mg/kg/injection, schedule: Q01DX001 (ip), vehicle: saline 84 % of control | endpoint: median survival time, dose: 2500.0 mg/kg/injection, schedule: Q01DX001 (ip), vehicle: saline 97 % of control

COC(OC)c1[nH]c(=S)[nH]c(=O)c1Cc1cccc(Cl)c1
inactive: endpoint: mean survival time, dose: 100.0 mg/kg/injection, schedule: Q04DX003 (ip), vehicle: saline sonified 95 % of control | endpoint: mean survival time, dose: 200.0 mg/kg/injection, schedule: Q04DX003 (ip), vehicle: saline sonified 101 % of control | endpoint: mean survival time, dose: 400.0 mg/kg/injection, schedule: Q04DX003 (ip), vehicle: saline sonified 108 % of control

[B-][N+]12CN3CN(CN(C3)C1)C2
inactive: endpoint: mean survival time, dose: 75.0 mg/kg/injection, schedule: Q01DX001 (ip), vehicle: saline 101 % of control

c1ccc(NCc2nc3ccccc3[nH]2)cc1
inactive: endpoint: mean survival time, dose: 12.5 mg/kg/injection, schedule: Q01DX005 (ip), vehicle: water 101 % of control | endpoint: mean survival time, dose: 25.0 mg/kg/injection, schedule: Q01DX005 (ip), vehicle: water 102 % of control

N#CCCP(CCC#N)CCCCP(CCC#N)CCC#N
inactive: endpoint: mean survival time, dose: 6.25 mg/kg/injection, schedule: Q01DX001 (ip), vehicle: saline with Tween-80 100 % of control | endpoint: mean survival time, dose: 12.5 mg/kg/injection, schedule: Q01DX001 (ip), vehicle: saline with Tween-80 96 % of control | endpoint: mean survival time, dose: 25.0 mg/kg/injection, schedule: Q01DX001 (ip), vehicle: saline with Tween-80 98 % of control and 102 % of control

CCCCCCCCOc1ccc(Cl)cc1
inactive: [1] 90 % of control | [2] 90 % of control | [3] 93 % of control

c1cc(C2CCOCC2)ccn1
inactive: [4] 109 % of control | endpoint: mean survival time, dose: 100.0 mg/kg/injection, schedule: Q04DX003 (ip), vehicle: saline 92 % of control | endpoint: mean survival time, dose: 200.0 mg/kg/injection, schedule: Q04DX003 (ip), vehicle: saline 90 % of control

Clc1ccc([I+]c2ccc(Cl)cc2)cc1
inactive: endpoint: median survival time, dose: 25.0 mg/kg/injection, schedule: Q04DX002 (ip), vehicle: saline with Tween-80 102 % of control | endpoint: median survival time, dose: 50.0 mg/kg/injection, schedule: Q04DX002 (ip), vehicle: saline with Tween-80 98 % of control | endpoint: median survival time, dose: 100.0 mg/kg/injection, schedule: Q04DX002 (ip), vehicle: saline with Tween-80 91 % of control

O=c1[nH]c(=O)n(C2CC(O)C(CO)O2)cc1/C=C/c1cccc([N+](=O)[O-])c1 (stereo unspecified)
inactive: endpoint: mean survival time, dose: 6.25 mg/kg/injection, schedule: Q01DX005 (ip), vehicle: distilled water + Tween-80 98 % of control | [5] 97 % of control | [6] 95 % of control | [7] 93 % of control | [8] 94 % of control

ClCCCCOCCCCCl
inactive: [9] 95 % of control | endpoint: mean survival time, dose: 100.0 mg/kg/injection, schedule: Q04DX003 (ip), vehicle: saline with Tween-80 97 % of control | endpoint: mean survival time, dose: 200.0 mg/kg/injection, schedule: Q01DX009 (ip), vehicle: saline with Tween-80 95 % of control | endpoint: mean survival time, dose: 200.0 mg/kg/injection, schedule: Q04DX003 (ip), vehicle: saline with Tween-80 95 % of control | endpoint: mean survival time, dose: 400.0 mg/kg/injection, schedule: Q01DX009 (ip), vehicle: saline with Tween-80 117 % of control | endpoint: mean survival time, dose: 400.0 mg/kg/injection, schedule: Q04DX003 (ip), vehicle: saline with Tween-80 97 % of control

CC(C)CCC(=O)/C=C\c1ccccc1
inactive: [10] 104 % of control | [1] 96 % of control | [2] 86 % of control | [3] 86 % of control

CC[N+](CC)(CC)Cc1ccccc1
inactive: endpoint: mean survival time, dose: 10.0 mg/kg/injection, schedule: Q04DX003 (ip), vehicle: saline with Tween-80 105 % of control | endpoint: mean survival time, dose: 20.0 mg/kg/injection, schedule: Q04DX003 (ip), vehicle: saline with Tween-80 94 % of control | endpoint: mean survival time, dose: 40.0 mg/kg/injection, schedule: Q04DX003 (ip), vehicle: saline with Tween-80 98 % of control

CC(C)(C)C(Br)C(=O)O (stereo unspecified)
inactive: endpoint: mean survival time, dose: 75.0 mg/kg/injection, schedule: Q01DX001 (ip), vehicle: saline with Tween-80 97 % of control | endpoint: mean survival time, dose: 150.0 mg/kg/injection, schedule: Q01DX001 (ip), vehicle: saline with Tween-80 97 % of control

C[C@]12C[C@H](O)[C@H]3[C@@H](CCC4=CC(=O)CC[C@@]43C)[C@@H]1CC[C@@H]2C(=O)CO
inactive: endpoint: median survival time, dose: 25.0 mg/kg/injection, schedule: Q01DX009 (sc), vehicle: steriod suspending solution 100 % of control | endpoint: median survival time, dose: 50.0 mg/kg/injection, schedule: Q01DX009 (sc), vehicle: steriod suspending solution 100 % of control | endpoint: median survival time, dose: 100.0 mg/kg/injection, schedule: Q01DX009 (sc), vehicle: steriod suspending solution 100 % of control | endpoint: median survival time, dose: 200.0 mg/kg/injection, schedule: Q01DX009 (sc), vehicle: steriod suspending solution 100 % of control

Nc1ccc(-c2ccc(N)cc2O)c(O)c1
inactive: [4] 98 % of control | [9] 95 % of control

O=c1[nH]nc(-c2cccc3ccccc23)o1
inactive: endpoint: mean survival time, dose: 100.0 mg/kg/injection, schedule: Q01DX001 (ip), vehicle: saline with Tween-80 96 % of control | endpoint: mean survival time, dose: 200.0 mg/kg/injection, schedule: Q01DX001 (ip), vehicle: saline with Tween-80 99 % of control | endpoint: mean survival time, dose: 400.0 mg/kg/injection, schedule: Q01DX001 (ip), vehicle: saline with Tween-80 108 % of control

CC(=O)NC1CCC(C(C)C)CC1 (stereo unspecified)
inactive: endpoint: mean survival time, dose: 50.0 mg/kg/injection, schedule: Q01DX001 (ip), vehicle: saline with Tween-80 102 % of control

BrCC[n+]1ccc(-c2cc[n+](CCBr)cc2)cc1
inactive: endpoint: mean survival time, dose: 10.0 mg/kg/injection, schedule: Q01DX001 (ip), vehicle: Klucel (hydroxypropylcellulose) (HPC) 110 % of control | endpoint: mean survival time, dose: 20.0 mg/kg/injection, schedule: Q01DX001 (ip), vehicle: Klucel (hydroxypropylcellulose) (HPC) 93 % of control | endpoint: mean survival time, dose: 40.0 mg/kg/injection, schedule: Q01DX001 (ip), vehicle: Klucel (hydroxypropylcellulose) (HPC) 98 % of control

Nc1ccc2ncccc2c1
inactive: endpoint: mean survival time, dose: 25.0 mg/kg/injection, schedule: Q01DX009 (ip), vehicle: other 93 % of control | endpoint: mean survival time, dose: 50.0 mg/kg/injection, schedule: Q01DX009 (ip), vehicle: other 95 % of control | endpoint: mean survival time, dose: 100.0 mg/kg/injection, schedule: Q01DX009 (ip), vehicle: other 91 % of control

CN1CCCN(C)C1c1ccc(Cl)cc1
inactive: endpoint: mean survival time, dose: 6.25 mg/kg/injection, schedule: Q01DX009 (ip), vehicle: saline with Tween-80 98 % of control | endpoint: mean survival time, dose: 12.5 mg/kg/injection, schedule: Q01DX009 (ip), vehicle: saline with Tween-80 100 % of control | endpoint: mean survival time, dose: 25.0 mg/kg/injection, schedule: Q01DX009 (ip), vehicle: saline with Tween-80 94 % of control

CC(=O)/C=C\C1OC(n2ccc(=O)[nH]c2=O)C2OC(C)(C)OC12 (stereo unspecified)
inactive: [5] 105 % of control | [6] 103 % of control | [7] 97 % of control | [8] 102 % of control | endpoint: mean survival time, dose: 200.0 mg/kg/injection, schedule: Q01DX005 (ip), vehicle: distilled water + Tween-80 103 % of control

CCCC1([N+](=O)[O-])c2ccccc2-c2ccc([N+](=O)[O-])cc21 (stereo unspecified)
inactive: endpoint: mean survival time, dose: 100.0 mg/kg/injection, schedule: Q01DX001 (ip), vehicle: saline 98 % of control | endpoint: mean survival time, dose: 200.0 mg/kg/injection, schedule: Q01DX001 (ip), vehicle: saline 96 % of control | endpoint: mean survival time, dose: 400.0 mg/kg/injection, schedule: Q01DX001 (ip), vehicle: saline 92 % of control

CC1(O)C=CC(=O)C=C1
inactive: endpoint: median survival time, dose: 6.25 mg/kg/injection, schedule: Q01DX009 (ip), vehicle: water 91 % of control | endpoint: median survival time, dose: 12.5 mg/kg/injection, schedule: Q01DX009 (ip), vehicle: water 103 % of control | endpoint: median survival time, dose: 25.0 mg/kg/injection, schedule: Q01DX009 (ip), vehicle: water 122 % of control | endpoint: median survival time, dose: 50.0 mg/kg/injection, schedule: Q01DX009 (ip), vehicle: water 91 % of control

N#CC1C2CCC(O2)C1C(=O)Oc1ccccc1 (stereo unspecified)
inactive: endpoint: mean survival time, dose: 25.0 mg/kg/injection, schedule: Q04DX002 (ip), vehicle: saline with Tween-80 103 % of control | [10] 95 % of control | [1] 97 % of control and 110 % of control

— PubChem BioAssay AID256 (DTP/NCI, 2004)
